In article PMC12959137 (Antimicrobial Agents and Chemotherapy, 2026):

Biological target: KPC-2 (Klebsiella pneumoniae, UniProt Q9F663)
Format: biochemical
Conditions: read-out: KM for nitrocefin hydrolysis (used in Morrison fit)
Experimental: Initial velocities (v₀) were determined by fitting the reaction progress curves by linear regression. These velocities were then plotted against buffer concentrations and analyzed using the Morrison equation to determine the inhibition constant (Ki) ([33]). […] All data analysis and curve fitting were performed using GraphPad Prism (version 10.3.1).

Chain of KPC-2 (Q9F663 25-293 limits assumed): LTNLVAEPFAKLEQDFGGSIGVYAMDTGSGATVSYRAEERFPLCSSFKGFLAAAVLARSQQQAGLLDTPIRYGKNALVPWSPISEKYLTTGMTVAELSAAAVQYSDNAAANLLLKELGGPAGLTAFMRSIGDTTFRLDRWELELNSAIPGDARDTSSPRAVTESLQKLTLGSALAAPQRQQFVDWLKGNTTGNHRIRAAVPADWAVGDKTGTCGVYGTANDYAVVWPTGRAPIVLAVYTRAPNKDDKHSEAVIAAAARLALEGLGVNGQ

Question: Which Km does the source give for `O=C(Cc1cccs1)N[C@@H]1C(=O)N2C(C(=O)O)=C(/C=C/c3ccc([N+](=O)[O-])cc3[N+](=O)[O-])CS[C@H]12` [nitrocefin] here?
Answer: Its Km is 45 µM.
